From ChEMBL document CHEMBL3244062, “3-Halo-5,7-dimethylpyrazolo [1,5-a]pyrimidines, a nonbenzodiazepinoid class of antianxiety agents devoid of potentiation of central nervous system depressant effects of ethanol or barbiturates” (J Med Chem, 1977)
Active and inactive are the calls of the source. No cut-off for these calls is given here.

Columns and labels:
[1] = system: Mus musculus; assay: Antianxiety activity in mouse assessed as ataxia, catatonia, and alterations in motor activity and startle reflex at 50 mg/kg, ip after 30 to 120 mins; format: functional, organism-based; design: dose 50 mg/kg
[2] = system: Mus musculus; assay: Antianxiety activity in mouse assessed as ataxia, catatonia, and alterations in motor activity and startle reflex at 100 mg/kg, ip after 30 to 120 mins; format: functional, organism-based; design: dose 100 mg/kg
[3] = system: Rhesus monkey; assay: Antiaggressive activity in Rhesus monkey assessed as reduction in biting, pushing or attacking the pole responses at 25 to 100 mg/mg, po after 0 to 6 hrs; format: functional, organism-based; conditions: Macaca mulatta
[4] = system: Mus musculus; assay: Antiaggressive activity in mouse assessed as change in foot shock-induced fighting behavior at 80 mg/kg, po after 30 mins; format: functional
[5] = system: Mus musculus; assay: Antiaggressive activity in mouse assessed as change in foot shock-induced fighting behavior at 80 mg/kg, po after 90 mins; format: functional
[6] = system: Mus musculus; assay: Antiaggressive activity in mouse assessed as change in foot shock-induced fighting behavior at 20 mg/kg, po after 30 mins; format: functional
[7] = system: Rattus norvegicus; assay: Antiaggressive activity in Long-Evans black-hooded rat assessed as suppression of muricide behavior for 2 mins period at 80 mg/kg, po; format: functional; conditions: Long-Evans black-hood
[8] = system: Rattus norvegicus; assay: Antiaggressive activity in Long-Evans black-hooded rat assessed as suppression of muricide behavior for 2 mins period at 20 mg/kg, po; format: functional; conditions: Long-Evans black-hood
[9] = system: Rattus norvegicus; assay: Antipsychotic activity in ip dosed rat assessed as reduction in avoidance responding by Sidman avoidance test; format: functional
[10] = Acute toxicity in mouse measured following single po dose; format: organism-based; conditions: in vivo
[11] = system: Mus musculus; assay: […] in po dosed mouse assessed as potentiation of ethanol-induced loss of the righting reflex in 50% mouse; format: functional
[12] = system: Rattus norvegicus; assay: Anticonvulsant activity in ip dosed rat assessed as impairment of motor performance by forced motor activity test; format: functional
[13] = system: Mus musculus; assay: Antiaggressive activity in mouse assessed as change in foot shock-induced fighting behavior at 20 mg/kg, po after 90 mins; format: functional
[14] = system: Rattus norvegicus; assay: Anticonvulsant activity in ip dosed rat assessed as impairment of motor performance by spontaneous motor activity test; format: functional
[15] = system: Rattus norvegicus; assay: Antianxiety activity in ip dosed rat assessed as punished responding by conditioned lick suppression behavioral test; format: functional; conditions: read-out: MED
[16] = Acute toxicity in mouse measured following single ip dose; format: organism-based; conditions: in vivo
[17] = system: Mus musculus; assay: […] in po dosed mouse assessed as potentiation of sodium barbital-induced loss of the righting reflex in 50% mouse; format: functional
[18] = system: Rattus norvegicus; assay: Antianxiety activity in po dosed rat assessed as punished responding by conditioned lick suppression behavioral test; format: functional; conditions: read-out: MED
[19] = system: Rhesus monkey; assay: Antiaggressive activity in Rhesus monkey assessed as reduction in biting, pushing or attacking the pole responses at 2.5 to 10 mg/mg, po after 0 to 6 hrs; format: functional, organism-based; conditions: Macaca mulatta

SMILES | Activity [1] | Activity [2] | further results
Cc1cc(C)n2ncc(S(=O)(=O)N3CCN(C)CC3)c2n1 | inactive | inactive | –
Cc1cc(C)n2ncc(Br)c2n1 | Active | Active | inhibition [3]: inactive; Activity [4]: -46%; Activity [5]: -8%; Activity [6]: 30%; inhibition in vivo at 80 mg/kg [7]: 60%; inhibition in vivo at 20 mg/kg [8]: 0%; ED50 [9]: 29.5 mg/kg; LD50 [10]: 1350 mg/kg; HD50 [11]: 236.8 mg/kg; ED50 [12]: 18.4 mg/kg; Activity [13]: 13%; ED50 [14]: 27.1 mg/kg; minimal effective dose [15]: 10 mg/kg; LD50 [16]: 458 mg/kg; HD50 [17]: 61.9 mg/kg; minimal effective dose [18]: 20 mg/kg
Cc1cn2ncc(Br)c2nc1C | inactive | inactive | –
Cc1ccn2nccc2n1 | Active | Active | –
CC(=O)Cc1cc(C)nc2ccnn12 | Active | Active | –
CCCc1cc(C)nc2c(Br)cnn12 | Active | Active | –
Cc1cc(C)n2nc(O)c(Br)c2n1 | inactive | inactive | –
Cc1cc(C)n2ncc(C(=O)C(F)(F)F)c2n1 | inactive | inactive | –
CNC1=Nc2ccc(Cl)cc2C(c2ccccc2)=[N+]([O-])C1 [CHLORDIAZEPOXIDE] | – | – | ED50 [9]: 14.3 mg/kg; LD50 [10]: 939 mg/kg; HD50 [11]: 12.6 mg/kg; minimal effective dose [15]: 20 mg/kg; LD50 [16]: 183 mg/kg; HD50 [17]: 6.4 mg/kg; minimal effective dose [18]: 60 mg/kg
c1cnc2ccnn2c1 | Active | Active | –
Cc1cc(C)n2ncc(S)c2n1 | inactive | inactive | –
Cc1cnc2ccnn2c1 | inactive | inactive | –
CC(C)c1cc(C(C)C)n2ncc(Br)c2n1 | inactive | inactive | –
Cc1cc(C)n2ncc(SC#N)c2n1 | inactive | inactive | –
Cc1ccnc2c(Br)cnn12 | inactive | inactive | –
Cc1cc(C)n2nc(Br)cc2n1 | Active | Active | –
Cc1ccnc2ccnn12 | inactive | inactive | –
Cc1cc(C)n2ncc(N=O)c2n1 | inactive | inactive | –
Cc1cc(C)n2nccc2n1 | Active | Active | ED50 [9]: 60.3 mg/kg; LD50 [10]: 928 mg/kg; HD50 [11]: 228.6 mg/kg; ED50 [12]: 65 mg/kg; ED50 [14]: 79 mg/kg; minimal effective dose [15]: 40 mg/kg; LD50 [16]: 537 mg/kg; HD50 [17]: 118.8 mg/kg; minimal effective dose [18]: 60 mg/kg
Cc1cc(C)n2ncc(S(N)(=O)=O)c2n1 | inactive | inactive | –
Cc1cc(C)n2ncc(C#N)c2n1 | inactive | inactive | –
Cc1cc(C)n2ncc(-c3ccccc3)c2n1 | inactive | inactive | –

SMILES | Activity [1] | Activity [2] | further results
CCCCc1cc(CCCC)n2ncc(Br)c2n1 | inactive | inactive | –
CN1C(=O)CN=C(c2ccccc2)c2cc(Cl)ccc21 [DIAZEPAM] | – | – | inhibition [19]: inactive; ED50 [9]: 11.3 mg/kg; HD50 [11]: 1.5 mg/kg; ED50 [12]: 5.6 mg/kg; ED50 [14]: 9.2 mg/kg; minimal effective dose [15]: 20 mg/kg; HD50 [17]: 0.5 mg/kg; minimal effective dose [18]: 20 mg/kg
CCc1cc(CC)n2ncc(Br)c2n1 | Active | Active | –
Cc1cc(C)n2nc(Cl)cc2n1 | Active | Active | –
CCc1cc(C)nc2c(Br)cnn12 | Active | Active | –
Cc1cc(C)n2ncc(Cl)c2n1 | Active | Active | inhibition [3]: inactive; Activity [4]: -89%; Activity [5]: -57%; Activity [6]: -3%; inhibition in vivo at 80 mg/kg [7]: 80%; inhibition in vivo at 20 mg/kg [8]: 0%; ED50 [9]: 31.8 mg/kg; LD50 [10]: 599 mg/kg; HD50 [11]: 391.7 mg/kg; ED50 [12]: 32.7 mg/kg; Activity [13]: 22%; ED50 [14]: 38.6 mg/kg; minimal effective dose [15]: 10 mg/kg; LD50 [16]: 369 mg/kg; HD50 [17]: 60.9 mg/kg; minimal effective dose [18]: 10 mg/kg
Cc1cc(C)n2ncc(I)c2n1 | Active | Active | ED50 [9]: 39.1 mg/kg; LD50 [10]: > 3000 mg/kg; HD50 [11]: 296.1 mg/kg; ED50 [12]: 19.8 mg/kg; ED50 [14]: 24.9 mg/kg; minimal effective dose [15]: 20 mg/kg; LD50 [16]: 612 mg/kg; HD50 [17]: 142.8 mg/kg; minimal effective dose [18]: 120 mg/kg
Cc1cn2nccc2nc1C | inactive | inactive | –
Cc1cc(C)n2ncc(/C(N)=N/O)c2n1 | inactive | inactive | –
Brc1cnn2cccnc12 | inactive | inactive | –
Cc1cc(C)n2ncc(S(=O)(=O)Cl)c2n1 | inactive | inactive | –
Cc1cc(C)n2ncc(N)c2n1 | inactive | inactive | –
CCOC(=O)c1cnn2c(C)cc(C)nc12 | inactive | inactive | –
Cc1cc(C)n2[nH]c(=O)cc2n1 | inactive | inactive | –
Cc1cc(C)n2ncc(C)c2n1 | Active | Active | –
FC(F)(F)c1cc(C(F)(F)F)n2nccc2n1 | inactive | inactive | –
Cc1cc(C)n2ncc(C(N)=O)c2n1 | Active | Active | –
Cc1cc(C)n2ncc(C(N)=S)c2n1 | inactive | inactive | –
Cc1cc(C)n2ncc(F)c2n1 | Active | Active | ED50 [9]: 40.2 mg/kg; minimal effective dose [15]: 40 mg/kg; minimal effective dose [18]: 80 mg/kg
CN(C)CCCN1c2ccccc2Sc2ccc(Cl)cc21 [CHLORPROMAZINE] | – | – | ED50 [9]: 3.7 mg/kg
Cc1cc(C)n2ncc([N+](=O)[O-])c2n1 | inactive | inactive | –
